Results reported in patent US9771370B2, “Compounds for the inhibition of indoleamine-2,3-dioxygenase” (Merck Patent GmbH, priority 2014, dated 2017).

Molecular target: Recombinant human IDO (Homo sapiens, UniProt P14902)
Assay: Bridge-IT tryptophan fluorescence assay of human IDO-1 inhibition
Format: biochemical
Settings: recombinant human IDO 7.5 nM, L-tryptophan
Protocol: Measurement of human IDO-1 inhibition is performed in 384 well format using the Bridge-IT® tryptophan Fluorescence Assay (Mediomics, LLC, St. Louis, Mo., U.S.A.).
The reaction is initiated by the addition of L-Tryptophan (Sigma) at a final concentration of 100 μM in assay buffer. After 90 minutes of incubation at 37° C., the reaction is stopped by transferring 1 μl of the reaction mixture to 9 μl of Bridge-IT assay solution A. After 30 min of incubation at 30° C., the fluorescence intensity was measured at λex=485 nm and λem=665 nm using Perkin Elmer Envision® Multilabel Reader.
Measurement of human IDO-1 inhibition was performed in 384-well format using the BRIDGE-IT® tryptophan Fluorescence Assay (Mediomics, LLC, St. Louis, Mo., U.S.A.). […] After 30 minutes of pre-incubation at 25° C., the reaction was initiated by the addition of L-Tryptophan (Sigma) at a final concentration of 50 μM in assay buffer. After 60 minutes of incubation at 25° C., the reaction is stopped by transferring 1 μl of the reaction mixture to 9 μl of Bridge-IT assay solution A. After 30 min of incubation at 30° C., the fluorescence intensity was measured at λex=485 nm and λem=665 nm using Perkin Elmer ENVISION® Multilabel Reader.

Sequence of Recombinant human IDO (P14902 whole entry): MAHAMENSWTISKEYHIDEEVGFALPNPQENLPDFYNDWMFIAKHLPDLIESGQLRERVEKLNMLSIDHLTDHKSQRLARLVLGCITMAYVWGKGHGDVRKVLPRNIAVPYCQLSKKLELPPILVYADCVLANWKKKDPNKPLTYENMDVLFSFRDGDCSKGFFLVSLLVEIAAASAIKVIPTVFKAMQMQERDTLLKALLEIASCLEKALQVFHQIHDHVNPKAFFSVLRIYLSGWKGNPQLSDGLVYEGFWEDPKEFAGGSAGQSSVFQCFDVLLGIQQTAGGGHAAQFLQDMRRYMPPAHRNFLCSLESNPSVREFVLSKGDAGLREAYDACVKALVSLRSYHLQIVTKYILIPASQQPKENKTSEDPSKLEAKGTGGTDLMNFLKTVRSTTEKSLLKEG

SMILES | IC50 [µM]
OC1CCC(F)(CCC2c3ccccc3-c3cncn32)CC1 (single isomer, unassigned) [Compound 13a, 4-(2-(5H-imidazo[5,1-a]isoindol-5-yl)ethyl)-4-fluorocyclohexanol] | > 1
OC1CCC(F)(CCC2c3ccccc3-c3cncn32)CC1 (single isomer, unassigned) [Compound 13b, 4-(2-(5H-imidazo[5,1-a]isoindol-5-yl)ethyl)-4-fluorocyclohexanol] | < 0.1
COc1cc2c(cn1)-c1cncn1C2CCC1(F)CCCCC1 (single isomer, unassigned) [Compound 15a, 7-[2-(1-fluorocyclohexyl)ethyl]-10-methoxy-4,6,11-triazatricyclo[6.4.0.0^[2,6]]dodeca-1(8),2,4,9,11-pentaene] | > 1
COc1cc2c(cn1)-c1cncn1C2CCC1(F)CCCCC1 (single isomer, unassigned) [Compound 15b, 7-[2-(1-fluorocyclohexyl)ethyl]-10-methoxy-4,6,11-triazatricyclo[6.4.0.0^[2,6]]dodeca-1(8),2,4,9,11-pentaene] | > 1
OC1CCC(F)(CCC2c3c(F)cccc3-c3cncn32)CC1 (single isomer, unassigned) [Compound 16a, 4-fluoro-4-(2-(6-fluoro-5H-imidazo[5,1-a]isoindol-5-yl)ethyl)cyclohexanol] | < 0.1
OC1CCC(F)(CCC2c3c(F)cccc3-c3cncn32)CC1 (single isomer, unassigned) [Compound 16b, 4-fluoro-4-(2-(6-fluoro-5H-imidazo[5,1-a]isoindol-5-yl)ethyl)cyclohexanol] | 0.1 to 1
FC1(CCC2c3ncccc3-c3cncn32)CCCCC1 (single isomer, unassigned) [Compound 18a, 7-[2-(1-fluorocyclohexyl)ethyl]-4,6,9-triazatricyclo[6.4.0.0^[2,6]]dodeca-1(8),2,4,9,11-pentaene] | 0.1 to 1
FC1(CCC2c3ncccc3-c3cncn32)CCCCC1 (single isomer, unassigned) [Compound 18b, 7-[2-(1-fluorocyclohexyl)ethyl]-4,6,9-triazatricyclo[6.4.0.0^[2,6]]dodeca-1(8),2,4,9,11-pentaene] | > 1
Fc1cccc2c1C(CCC1(F)CCCCC1)n1cncc1-2 (single isomer, unassigned) [Compound 19a, 6-fluoro-5-(2-(1-fluorocyclohexyl)ethyl)-5H-imidazo[5,1-a]isoindole] | > 1
Fc1cccc2c1C(CCC1(F)CCCCC1)n1cncc1-2 (single isomer, unassigned) [Compound 19b, 6-fluoro-5-(2-(1-fluorocyclohexyl)ethyl)-5H-imidazo[5,1-a]isoindole] | < 0.1
OC(CC1c2ncccc2-c2cncn21)C1CCC(F)(F)CC1 (single isomer, unassigned) [Compound 22a, 1-(4,4-difluorocyclohexyl)-2-[4,6,9-triazatricyclo[6.4.0.0^[2,6]]dodeca-1(8),2,4,9,11-pentaen-7-yl]ethan-1-ol] | 0.1 to 1
OC(CC1c2ncccc2-c2cncn21)C1CCC(F)(F)CC1 (single isomer, unassigned) [Compound 22b, 1-(4,4-difluorocyclohexyl)-2-[4,6,9-triazatricyclo[6.4.0.0^[2,6]]dodeca-1(8),2,4,9,11-pentaen-7-yl]ethan-1-ol] | > 1
OC(CC1c2ncccc2-c2cncn21)C1CCC(F)(F)CC1 (single isomer, unassigned) [Compound 22c, 1-(4,4-difluorocyclohexyl)-2-[4,6,9-triazatricyclo[6.4.0.0^[2,6]]dodeca-1(8),2,4,9,11-pentaen-7-yl]ethan-1-ol] | > 1
OC(CC1c2ncccc2-c2cncn21)C1CCC(F)(F)CC1 (single isomer, unassigned) [Compound 22d, 1-(4,4-difluorocyclohexyl)-2-[4,6,9-triazatricyclo[6.4.0.0^[2,6]]dodeca-1(8),2,4,9,11-pentaen-7-yl]ethan-1-ol] | > 1
CC1(C)CCC(F)(CCC2c3c(F)cccc3-c3cncn32)CC1 (single isomer, unassigned) [Compound 23a, 6-fluoro-5-(2-(1-fluoro-4,4-dimethylcyclohexyl)ethyl)-5H-imidazo[5,1-a]isoindole] | > 1
OC(CC1c2cc(F)ncc2-c2cncn21)C1CCCCC1 (single isomer, unassigned) [Compound 24a, 1-cyclohexyl-2-[10-fluoro-4,6,11-triazatricyclo[6.4.0.0^[2,6]]dodeca-1(8),2,4,9,11-pentaen-7-yl]ethan-1-ol] | > 1

SMILES | IC50 [µM]
OC(CC1c2cc(F)ncc2-c2cncn21)C1CCCCC1 (single isomer, unassigned) [Compound 24b, 1-cyclohexyl-2-[10-fluoro-4,6,11-triazatricyclo[6.4.0.0^[2,6]]dodeca-1(8),2,4,9,11-pentaen-7-yl]ethan-1-ol] | > 1
OC(CC1c2cc(F)ncc2-c2cncn21)C1CCCCC1 (single isomer, unassigned) [Compound 24c, 1-cyclohexyl-2-[10-fluoro-4,6,11-triazatricyclo[6.4.0.0^[2,6]]dodeca-1(8),2,4,9,11-pentaen-7-yl]ethan-1-ol] | < 0.1
OC(CC1c2cc(F)ncc2-c2cncn21)C1CCCCC1 (single isomer, unassigned) [Compound 24d, 1-cyclohexyl-2-[10-fluoro-4,6,11-triazatricyclo[6.4.0.0^[2,6]]dodeca-1(8),2,4,9,11-pentaen-7-yl]ethan-1-ol] | < 0.1
CC1(C)CCC(C(O)CC2c3nc(F)ccc3-c3cncn32)CC1 (single isomer, unassigned) [Compound 25a, 1-(4,4-dimethylcyclohexyl)-2-[10-fluoro-4,6,9-triazatricyclo[6.4.0.0^[2,6]]dodeca-1(8),2,4,9,11-pentaen-7-yl]ethan-1-ol] | > 1
CC1(C)CCC(C(O)CC2c3nc(F)ccc3-c3cncn32)CC1 (single isomer, unassigned) [Compound 25b, 1-(4,4-dimethylcyclohexyl)-2-[10-fluoro-4,6,9-triazatricyclo[6.4.0.0^[2,6]]dodeca-1(8),2,4,9,11-pentaen-7-yl]ethan-1-ol] | > 1
CC1(C)CCC(C(O)CC2c3nc(F)ccc3-c3cncn32)CC1 (single isomer, unassigned) [Compound 25c, 1-(4,4-dimethylcyclohexyl)-2-[10-fluoro-4,6,9-triazatricyclo[6.4.0.0^[2,6]]dodeca-1(8),2,4,9,11-pentaen-7-yl]ethan-1-ol] | > 1
CC1(C)CCC(C(O)CC2c3nc(F)ccc3-c3cncn32)CC1 (single isomer, unassigned) [Compound 25d, 1-(4,4-dimethylcyclohexyl)-2-[10-fluoro-4,6,9-triazatricyclo[6.4.0.0^[2,6]]dodeca-1(8),2,4,9,11-pentaen-7-yl]ethan-1-ol] | > 1
OC(CC1c2nc(F)ccc2-c2cncn21)C1CCC(F)(F)CC1 (single isomer, unassigned) [Compound 26a, 1-(4,4-difluorocyclohexyl)-2-[10-fluoro-4,6,9-triazatricyclo[6.4.0.0^[2,6]]dodeca-1(8),2,4,9,11-pentaen-7-yl]ethan-1-ol] | > 1
OC(CC1c2nc(F)ccc2-c2cncn21)C1CCC(F)(F)CC1 (single isomer, unassigned) [Compound 26b, 1-(4,4-difluorocyclohexyl)-2-[10-fluoro-4,6,9-triazatricyclo[6.4.0.0^[2,6]]dodeca-1(8),2,4,9,11-pentaen-7-yl]ethan-1-ol] | 0.1 to 1
OC(CC1c2ncccc2-c2cncn21)C1CCC2(CC1)CC2 (single isomer, unassigned) [Compound 29a, 1-[spiro[2.5]octan-6-yl]-2-[4,6,9-triazatricyclo[6.4.0.0^[2,6]]dodeca-1(8),2,4,9,11-pentaen-7-yl]ethan-1-ol] | 0.1 to 1
OC(CC1c2ncccc2-c2cncn21)C1CCC2(CC1)CC2 (single isomer, unassigned) [Compound 29b, 1-[spiro[2.5]octan-6-yl]-2-[4,6,9-triazatricyclo[6.4.0.0^[2,6]]dodeca-1(8),2,4,9,11-pentaen-7-yl]ethan-1-ol] | > 1
OC(CC1c2ncccc2-c2cncn21)C1CCC2(CC1)CC2 (single isomer, unassigned) [Compound 29c, 1-[spiro[2.5]octan-6-yl]-2-[4,6,9-triazatricyclo[6.4.0.0^[2,6]]dodeca-1(8),2,4,9,11-pentaen-7-yl]ethan-1-ol] | 0.1 to 1
OC(CC1c2ncccc2-c2cncn21)C1CCC2(CC1)CC2 (single isomer, unassigned) [Compound 29d, 1-[spiro[2.5]octan-6-yl]-2-[4,6,9-triazatricyclo[6.4.0.0^[2,6]]dodeca-1(8),2,4,9,11-pentaen-7-yl]ethan-1-ol] | > 1
FC1(CCC2c3ncccc3-c3cncn32)CCC2(CC1)CC2 (single isomer, unassigned) [Compound 30a, 7-(2-{6-fluorospiro[2.5]octan-6-yl}ethyl)-4,6,9-triazatricyclo[6.4.0.0^[2,6]]dodeca-1(8),2,4,9,11-pentaene] | 0.1 to 1
FC1(CCC2c3ncccc3-c3cncn32)CCC2(CC1)CC2 (single isomer, unassigned) [Compound 30b, 7-(2-{6-fluorospiro[2.5]octan-6-yl}ethyl)-4,6,9-triazatricyclo[6.4.0.0^[2,6]]dodeca-1(8),2,4,9,11-pentaene] | > 1
